This is an account of results in publication PMC9848351, “Discovery of new pyridine-quinoline hybrids as competitive and non-competitive PIM-1 kinase inhibitors with apoptosis induction and caspase 3/7 activation capabilities” (Journal of Enzyme Inhibition and Medicinal Chemistry, 2023).

Molecules are shown by their SMILES.

Data set [1] deals with Colon cancer cells (Caco-2). The data set can be described thus: MTT anticancer activity, Caco-2. In kind it is cell-based, human. The following applies: for IC50: Homo sapiens, Caco-2, 72 h, MTT, mean ± SEM; for Caco-2 SI: selectivity index, Wi-38 versus Caco-2. On the procedure:
(§1) Anticancer effect of the above-mentioned compounds was evaluated using four human cancer cell lines. Colon cancer cells (Caco-2), myeloid leukaemia cell line (NFS-60), liver cancer cell line (HepG-2) and prostate cancer cell line (PC-3) using MTT method was used for assaying cell viability[26] (Supplementary Page S55).
All final compounds were evaluated against four human cancer cell lines namely; liver cancer (HepG2) (ATCC® HB-8065™), colon cancer (Caco-2) (ATCC® HTB-37™), leukaemia cancer (NFS-60) (ATCC® CRL-1838™), and prostate cancer (PC-3) (ATCC® CRL-1435™) using doxorubicin (Dox) as the reference drug being widely used in tumour management utilising microculture MTT assay, declared by Mosmann[26] (Table 1 in Supplementary Material, Figures 5–8).
(§2) Cytotoxicity of the tested compounds was evaluated using normal human lung fibroblast Wi-38 cell line compared to currently used anticancer drug (doxorubicin).
(§3) Firstly, Wi-38 cell line was subcultured in DMEM medium-contained 10% fetal bovine serum (FBS), then, seeded as 5x10^3 cells per well in 96-well cell culture plate and incubated at 37 °C in 5% CO 2 incubator. Serial concentrations of these compounds and doxorubicin (Dox) were incubat ed with Wi-38 cells for 72 h after 24 h for cell attachment. MTT method was used for assaying cell viability 25. Twenty microliters of 5 mg/ml MTT (Sigma, USA) was added to each well and the plate was incubated at 37 °C for 3 h. Then MTT solution was removed, 100 µl DMSO was used and the absorbance of each well was measured with a microplate reader ( BMG LabTech, Germany) at 570 nm. The effective concentration (IC 50) and safe dose (EC100) values of the tested compounds that cause 50% and 100% cell viability were estimated by the Graphpad Instat software.
(§4) Determination of the anticancer activity
(§5) Anticancer effect of the above-mentioned compounds was evaluated using four human cancer cell lines. Colon cancer cells (Caco-2) were maintained in DMEM (Lonza, USA) containing 10% FBS while myeloid leukemia cell line (NFS-60), liver cancer cell line (HepG-2) and prostate cancer cell line (PC-3) were cultured in RPMI-1640 (Lonza, USA) supplemented with 10% FBS. All cancer cells (5x10^3 cells/well) were seeded in sterile 96-well plates. After 24h, serial concentrations of the tested compounds and Dox were incubated with four cancer cell lines for 72 h at 37 °C in 5% CO2 incubator. MTT method was done as described above. The Graphpad Instat software was used for calculating the half maximal inhibitory concentration (IC50) values. Furthermore, phase contrast inverted microscope with a digital camera (Olympus, Japan) was used for investigating […]
(§6) safest anticancer compounds. […]

Data set [2] deals with prostate cancer cell line (PC-3). The data set can be described thus: MTT anticancer activity, PC-3. In kind it is cell-based, human. The following applies: Homo sapiens, 72 h, PC-3, 72 h, mean ± SEM. On the procedure:
as §1
(§7) All final compounds were evaluated against four human cancer cell lines namely; liver cancer (HepG2) (ATCC® HB-8065™), colon cancer (Caco-2) (ATCC® HTB-37™), leukaemia cancer (NFS-60) (ATCC® CRL-1838™), and prostate cancer (PC-3) (ATCC® CRL-1435™) using doxorubicin (Dox) as the reference drug being widely used in tumour management utilising microculture MTT assay, declared by Mosmann[26] (Table 1 in Supplementary Material, Figures 5–8). […]
(§8) MTT method was used for assaying cell viability 25. Twenty microliters of 5 mg/ml MTT (Sigma, USA) was added to each well and the plate was incubated at 37 °C for 3 h. Then MTT solution was removed, 100 µl DMSO was used and the absorbance of each well was measured with a microplate reader ( BMG LabTech, Germany) at 570 nm. The effective concentration (IC 50) and safe dose (EC100) values of the tested compounds that cause 50% and 100% cell viability were estimated by the Graphpad Instat software.
as §4, §5, §6

Data set [3] has as its system liver cancer cell line (HepG-2). The data set can be described thus: MTT anticancer activity, HepG-2. In kind it is cell-based, human. Particulars: Homo sapiens, HepG2; HepG-2, 72 h, MTT; mean ± SEM. On the procedure:
as §1, §7, §8, §4, §5, §6

For data set [4], the system named is normal human lung fibroblast Wi-38 cell line. The data set can be described thus: MTT cytotoxicity on normal cells. The following applies: Wi-38, 72 h, MTT, mean ± SEM; for EC50: Homo sapiens, 50% cell viability; for Wi-38 EC100: safe dose, 100% cell viability. In kind it is cell-based. Here is the method:
Cytotoxicity of the tested compounds was evaluated using normal human lung fibroblast Wi-38 cell line compared to currently used anticancer drug (doxorubicin) using MTT method was used for assaying cell viability[26] (Supplementary Page S55).
Cytotoxicity test is one of the biological evaluations and screening tests that use human normal and cancer cells in-vitro to observe the effect of the studied compounds on their growth using MTT-based cytotoxicity. Microculture MTT method[26] was used to determine cytotoxic activity of the newly synthesised compounds against normal human lung fibroblast (Wi-38) using doxorubicin (Dox) as standard anticancer drug. The highest IC50 and EC100 values illustrate that the compounds were safe on the proliferation of normal human cells. […]. page 47:
as §2
as §3, with “software. […]” for “software.”

The subject of data set [5] is myeloid leukaemia cell line (NFS-60). The data set can be described thus: MTT anticancer activity, NFS-60. Type of data set: cell-based. The following applies: NFS-60, 72 h, MTT; mean ± SEM. Here is the method:
as §1, §7, §8, §4, §5, §6

Take `N#Cc1c(-c2cc3ccccc3nc2N2CCOCC2)cc(-c2cccc(O)c2)nc1OCC(=O)O` [9a, 2-((3-Cyano-6-(3-hydroxyphenyl)-4-(2-morpholin-4-yl-quinolin-3-yl)pyridin-2-yl)oxy)acetic acid]: the melting point is 179 to 180 °C. Moreover, in data set [1], the IC50 is 73.9 ± 0.1 nM and the “Caco-2 SI” value is 2.152. In data set [2], this compound returned an IC50 of 84.7 ± 3 nM. Moreover, the midpoint of inhibition in data set [3], the IC50, lay at 78.2 ± 2 nM. Further, in data set [4], the EC50 is 159 ± 4 nM and the “Wi-38 EC100” value was 0.0254 ± 0.002 µM. In addition, in data set [5], the half-maximal inhibitory concentration (IC50) was determined as 92.3 ± 0.1 nM.
The compound `N#Cc1c(-c2cc3cc(Cl)ccc3nc2N2CCOCC2)cc(-c2cccc(O)c2)nc1OCC(=O)O` [9b, 2-((4-(6-Chloro-2-morpholin-4-yl-quinolin-3-yl)-3-cyano-6-(3-hydroxyphenyl)pyridin-2-yl)oxy)acetic acid] returned a melting point of 279 to 280 °C. In addition, in data set [1], half-maximal inhibition (IC50) was put at 55.2 ± 2 nM and the “Caco-2 SI” value turned out to be 3.098. For the same compound, inhibition in data set [2] was half-maximal at 97.3 ± 8 nM (IC50). For the same compound, half-maximal inhibition in data set [3] (IC50) was put at 45.4 nM. In addition, in data set [4], the EC50 was 171 ± 1 nM and the “Wi-38 EC100” value was 0.134 ± 0.01 µM. Moreover, in data set [5], the IC50 came to 380 ± 10 nM.
Regarding `COc1ccc2nc(N3CCOCC3)c(-c3cc(-c4cccc(O)c4)nc(OCC(=O)O)c3C#N)cc2c1` [9c, 2-((3-Cyano-6-(3-hydroxyphenyl)-4-(6-methoxy-2-morpholin-4-yl-quinolin-3-yl)pyridin-2-yl)oxy)acetic acid], the melting point lay within 274 to 275 °C. Further, in data set [1], half-maximal inhibition (IC50) required 52.6 ± 0.1 nM and the “Caco-2 SI” value is 5.247. Moreover, it took 46.2 ± 2 nM to reach half-maximal inhibition in data set [2] (IC50). In data set [3], this compound yielded an IC50 of 86.7 ± 3 nM. For the same compound, in data set [4], the EC50 was 276 ± 2 nM and the “Wi-38 EC100” value was found to be 0.0754 ± 0.003 µM. In data set [5], this compound registered a half-maximal inhibitory concentration (IC50) of 96.1 ± 2 nM.
As for `N#Cc1c(-c2cc3ccccc3nc2N2CCOCC2)cc(-c2cccc(O)c2)nc1OCC(=O)Nc1ccccc1` [11a, 2-((3-Cyano-6-(3-hydroxyphenyl)-4-(2-morpholin-4-yl-quinolin-3-yl)pyridin-2-yl)oxy)-N-phenylacetamide], the melting point fell in the range of 243 to 245 °C. For the same compound, in data set [1], half-maximal inhibition (IC50) required 158 ± 2 nM and the “Caco-2 SI” value is recorded as 0.911. The same compound returned an IC50 in data set [2] of 158 ± 26 nM. Half-maximal inhibition in data set [3] (IC50) required 336 ± 22 nM. Moreover, in data set [4], the EC50 is 144 ± 1 nM and the “Wi-38 EC100” value stood at 0.0906 ± 0.012 µM. In data set [5], this compound displayed a 50% inhibitory concentration (IC50) of 126 ± 6 nM.
Regarding `N#Cc1c(-c2cc3ccccc3nc2N2CCOCC2)cc(-c2cccc(O)c2)nc1OCC(=O)Nc1ccc(Cl)cc1` [11b, N-(4-Chlorophenyl)-2-((3-cyano-6-(3-hydroxyphenyl)-4-(2-morpholin-4-yl-quinolin-3-yl)pyridin-2-yl)oxy)acetamide], the melting point lay within 279 to 280 °C. In data set [1], half-maximal inhibition (IC50) required 63 ± 2 nM and the “Caco-2 SI” value is given as 5.349. For the same compound, the IC50 in data set [2] came to 130 ± 11 nM. In data set [3], this compound showed an IC50 of 71.5 ± 1 nM. For the same compound, in data set [4], a half-maximal response (EC50) required 337 ± 24 nM and the “Wi-38 EC100” value is 0.00232 ± 0.001 µM. This compound had a half-maximal inhibitory concentration (IC50) in data set [5] of 181 ± 7 nM.
Compound `COc1ccc(NC(=O)COc2nc(-c3cccc(O)c3)cc(-c3cc4ccccc4nc3N3CCOCC3)c2C#N)cc1` [11c] showed a melting point of 268 to 270 °C. Also, in data set [1], the IC50 came out at 100 ± 14 nM and the “Caco-2 SI” value is recorded as 1.010. Moreover, the IC50 in data set [2] is 159 ± 7 nM. The midpoint of inhibition in data set [3], the IC50, lay at 281 ± 7 nM. Further, in data set [4], a half-maximal effect (EC50) was put at 101 ± 1 nM and the “Wi-38 EC100” value was found to be 0.0483 ± 0.004 µM. Besides, the IC50 in data set [5] is 110 ± 2 nM.
On to `COc1ccc2nc(N3CCOCC3)c(-c3cc(-c4cccc(O)c4)nc(OCC(=O)Nc4ccccc4)c3C#N)cc2c1` [11g, 2-((3-Cyano-6-(3-hydroxyphenyl)-4-(6-methoxy-2-morpholin-4-yl-quinolin-3-yl)pyridin-2-yl)oxy)-N-phenylacetamide], for which the melting point fell in the range of 269 to 270 °C. Besides, in data set [1], it took 62.6 ± 1 nM to reach half-maximal inhibition (IC50) and the “Caco-2 SI” value is 2.971. In addition, the IC50 in data set [2] was 83.9 ± 3 nM. Also, the IC50 in data set [3] was 62.8 ± 1 nM. For the same compound, in data set [4], the concentration giving a half-maximal response (EC50) came out at 186 ± 10 nM and the “Wi-38 EC100” value worked out at 0.0450 ± 0.005 µM. In data set [5], the IC50 came out at 103 ± 9 nM.
Compound `COc1ccc2nc(N3CCOCC3)c(-c3cc(-c4cccc(O)c4)nc(OCC(=O)Nc4ccc(Cl)cc4)c3C#N)cc2c1` [11h, N-(4-Chlorophenyl)-2-((3-cyano-6-(3-hydroxyphenyl)-4-(6-methoxy-2-morpholin-4-yl-quinolin-3-yl)pyridin-2-yl)oxy)acetamide] came in with a melting point of 230 to 232 °C. For the same compound, in data set [1], the IC50 is 82.9 ± 3 nM and the “Caco-2 SI” value was found to be 2.002. In data set [2], this compound registered an IC50 of 70.9 ± 0.1 nM. For the same compound, in data set [3], the IC50 was determined as 74 ± 2 nM. In data set [4], the EC50 was 166 ± 3 nM and the “Wi-38 EC100” value amounted to 0.0182 ± 0.001 µM. In addition, inhibition in data set [5] was half-maximal at 78.1 ± 7 nM (IC50).
Consider `COc1ccc(NC(=O)COc2nc(-c3cccc(O)c3)cc(-c3cc4cc(OC)ccc4nc3N3CCOCC3)c2C#N)cc1` [11i, 2-((3-Cyano-6-(3-hydroxyphenyl)-4-(6-methoxy-2-morpholin-4-yl-quinolin-3-yl)pyridin-2-yl)oxy)-N-(4-methoxyphenyl)acetamide], for which the melting point was greater than 300 °C. In data set [1], the IC50 amounted to 34.7 ± 3 nM and the “Caco-2 SI” value is 7.435. Moreover, in data set [2], the midpoint of inhibition, the IC50, lay at 63.4 ± 2 nM. In data set [3], this compound registered an IC50 of 48.6 nM. Further, in data set [4], it took 258 ± 31 nM to reach a half-maximal effect (EC50) and the “Wi-38 EC100” value was found to be 0.148 ± 0.0001 µM. Also, 523 ± 40 nM corresponded to half-maximal inhibition in data set [5] (IC50).
`N#Cc1c(-c2cc3cc(Cl)ccc3[nH]c2=O)cc(-c2cccc(O)c2)[nH]c1=O` [13b, 4-(6-Chloro-2-oxo-1,2-dihydroquinolin-3-yl)-6-(3-hydroxyphenyl)-2-oxo-1,2-dihydropyridine-3-carbonitrile]: the melting point was greater than 300 °C. Besides, in data set [1], the concentration for half-maximal inhibition (IC50) is 48.4 ± 5 nM and the “Caco-2 SI” value was 1.005. Moreover, in data set [2], half-maximal inhibition (IC50) was put at 38.8 ± 3 nM. The same compound yielded a half-inhibitory concentration (IC50) in data set [3] of 30.9 nM. For the same compound, in data set [4], the response was half-maximal at 48.6 ± 16 nM (EC50) and the “Wi-38 EC100” value was 0.017 ± 0.002 µM. This compound gave an IC50 in data set [5] of 33.7 nM.

For orientation: IC50 means the concentration needed to halve the response being measured. High values mean lower potency, low ones higher potency. For orientation: melting point means the temperature of the solid-liquid transition. Usually EC50 stands for the concentration that produces a half-maximal response. Read a high EC50 as weaker potency.
